The numbers were not newly measured in patent publication US20100022444A1, “COMBINATION THERAPY FOR MODULATION OF ACTIVITY AND DEVELOPMENT OF CELLS AND TISSUES” (BodyBio, Inc., priority 2008, published 2010), which cites them from elsewhere.

The data set has as its system mouse model of Bulbar ALS. The following applies: oral administration.

Take `CCCC(=O)[O-].[Na+]` [sodium butyrate]: the “acetylation of nuclear histone in neural tissues” value is given as “increased acetylation of nuclear histone in neural tissues” and the neurological phenotypes result is on record as “successfully ameliorated neurological phenotypes”.
